Assays:
Experiment in all cases: cells
Design in all cases: CellTiter-Glo 2.0 luminescence proliferation/viability assay, single agents, human tumour cell line panel
NCI-H1373 = conditions: Homo sapiens, NCI-H1373, 96 h; single agent; read-out: IC50 SMACm
Method in brief: (§1)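 Human tumour cell lines were seeded into assay plates and held at 37°C with 5% CO2 for twenty-four hours, then exposed in triplicate to rising concentrations of the SMAC mimetic, from 4.5 nM to 10 μM, with DMSO as control. After 96 h, viability was read as CellTiter-Glo2.0 luminescence to derive single-agent IC50 values.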

LS-123 = conditions: Homo sapiens, LS-123, 96 h; single agent; read-out: IC50 SMACm
Method in brief: as §1

COLO-201 = conditions: Homo sapiens, COLO 201, 96 h; single agent; read-out: IC50 SMACm
Method in brief: as §1

KM20 = conditions: 96 h; single agent; read-out: IC50 SMACm
Method in brief: as §1

NCI-H2228 = conditions: Homo sapiens, NCI-H2228, 96 h; single agent; read-out: IC50 SMACm
Method in brief: as §1

SW900 = conditions: Homo sapiens, SW900, 96 h; single agent; read-out: IC50 SMACm
Method in brief: as §1

SW480 = conditions: Homo sapiens, SW480, 96 h; single agent; read-out: IC50 SMACm
Method in brief: as §1

NCI-H747 = conditions: Homo sapiens, NCI-H747, 96 h; single agent; read-out: IC50 SMACm
Method in brief: as §1

Calu-1 = conditions: Homo sapiens, Calu-1, 96 h; single agent; read-out: IC50 SMACm
Method in brief: as §1

SNU1047 = conditions: 96 h; single agent; read-out: IC50 SMACm
Method in brief: as §1

MDST8 = conditions: MDST8, 96 h; single agent; read-out: IC50 SMACm
Method in brief: as §1

COLO94H = conditions: 96 h; single agent; read-out: IC50 SMACm
Method in brief: as §1

NCI-H596 = conditions: Homo sapiens, NCI-H596, 96 h; single agent; read-out: IC50 SMACm
Method in brief: as §1

HRA16 = conditions: 96 h; single agent; read-out: IC50 SMACm
Method in brief: as §1

NCI-H358 = conditions: Homo sapiens, NCI-H358, 96 h; single agent; read-out: IC50 SMACm
Method in brief: as §1

CN[C@@H](C)C(=O)Nc1ccc(-c2c(-c3cccnc3OC)nc3cc(C)ccn23)c(C#Cc2ccc3c(C)nccc3c2)n1 [SMACm, BI 891065]
IC50 (NCI-H1373): > 10 µM | IC50 (LS-123): 4.86 µM | IC50 (COLO-201): 0.369 µM | IC50 (KM20): 5.04 µM | IC50 (NCI-H2228): 4.44 µM | IC50 (SW900): 1.78 µM | IC50 (SW480): 5.81 µM | IC50 (NCI-H747): 5.06 µM | IC50 (Calu-1): 8.41 µM | IC50 (SNU1047): 2.79 µM | IC50 (MDST8): 4.78 µM | IC50 (COLO94H): 4.69 µM | IC50 (NCI-H596): 4.41 µM | IC50 (HRA16): 3.99 µM | IC50 (NCI-H358): > 10 µM
